Source: patent publication US20160075653A1, “NEMATICIDAL N-(PHENYLCYCLOALKYL)CARBOXAMIDES AND N-(PHENYLCYCLOALKYL)THIOCARBOXAMIDES” (BAYER CROPSCIENCE AKTIENGESELLSCHAFT, priority 2013, published 2016)

Assay: Measurement of log P values by HPLC on reversed phase columns (methods [a] pH 2.3, [b] pH 2.7, [c] pH 7.8)
Type: physicochemical
In short: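 Determined per EEC Directive 79/831 Annex V.A8 by reversed-phase HPLC, 10-95% acetonitrile gradient: [a] pH 2.3, 0.1% phosphoric acid; [b] LC-MS, pH 2.7, 0.1% formic acid; [c] LC-MS, pH 7.8, 0.001 molar ammonium hydrogen carbonate. Calibrated with C3-C16 alkan-2-ones by retention-time interpolation.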

[1] = HPLC reversed phase, method [b] (pH 2.7)
[2] = method [b], HPLC reversed phase, pH 2.7
[3] = HPLC on reversed phase column, method [b], pH 2.7
[4] = HPLC on reversed phase columns, method [b], pH 2.7

O=C(NC1CCCC1c1ccccc1C(F)(F)F)c1ccccc1Cl (centres unmarked) [Example 300]
logP [1]: 3.56^[b]

O=C(NC1CCCCC1c1c(F)cccc1F)c1cccnc1C(F)(F)F (centres unmarked) [Example 398]
logP [1]: 3.26^[b]

O=C(NC1CCCCC1c1ccccc1C(F)(F)F)c1ccccc1I (centres unmarked) [Example 389]
logP [1]: 4.13^[b]

O=C(N[C@@H]1CC[C@H]1c1ccccc1Cl)c1ccccc1C(F)(F)F (relative stereo) [Example 242]
logP [2]: 3.45^[b]

Cc1cc(C(=O)N(C2CC2)C2CCCC2c2ccc(Cl)cc2Cl)c(C)o1 (centres unmarked) [Example 175]
logP [2]: 5.39^[b]

O=C(N[C@@H]1CC[C@H]1c1ccc(Br)cc1C(F)(F)F)c1ccccc1C(F)(F)F (relative stereo) [Example 655]
logP [3]: 4.26^[b]
logP (HPLC on reversed phase column, method [c], pH 7.8): 4.19^[c];

Cc1nn(C)cc1C(=O)NC1CC1c1ccc(Br)cc1 (centres unmarked) [Example 23]
logP [4]: 3.20^[b]

O=C(N[C@@H]1CCC[C@@H]1c1ccc(F)c(F)c1)c1ccsc1I (relative stereo) [Compound 56]
logP [4]: 3.29^[b]

O=C(NC1CCC1c1ccc(Cl)cc1Cl)c1cccc(Cl)c1 (centres unmarked) [Example 457]
logP [1]: 3.87^[b]

O=C(N[C@@H]1CC[C@@H]1c1c(Cl)cccc1Cl)c1sccc1I [Example 745]
chromatographic logP (reversed phase HPLC columns, pH 2.7, HPLC on reversed phase columns, method [b] (pH 2.7), read-out: logP): 4.21

O=C(NC1CCC1c1ccc(Cl)cc1C(F)(F)F)c1sccc1I (centres unmarked) [Example 711]
logP [3]: 4.28^[b]

O=C(N[C@@H]1CCC[C@@H]1c1ccc(F)c(F)c1)c1ccc(C(F)(F)F)nc1Cl (relative stereo) [Example 124]
logP [4]: 3.68^[b]

O=C(NC1CC1(F)c1ccc(Cl)cc1)c1ccccc1C(F)(F)F (centres unmarked) [Example 754]
logP [4]: 3.24^[b]

O=C(N[C@@H]1CC[C@H]1c1ccccc1Cl)c1ccccc1[N+](=O)[O-] (relative stereo) [Example 547]
logP [1]: 2.92^[b]

FC(F)(F)c1ccccc1C(=S)NC1CC1c1ccccc1 (centres unmarked) [Example 148]
logP [2]: 3.69^[b]

O=C(NC1CC1c1ccccc1C(F)(F)F)c1ccccc1I (centres unmarked) [Example 232]
logP [2]: 3.31^[b]

O=C(N[C@@H]1CC[C@@H]1c1c(F)cccc1C(F)(F)F)c1ccc(Cl)cc1Cl (relative stereo) [Example 535]
logP [1]: 3.93^[b]

Cc1nc(C(F)(F)F)c(C(=O)N[C@@H]2CC[C@H]2c2ccc(Cl)cc2Cl)s1 (relative stereo) [Example 668]
logP [3]: 3.91^[b]

O=C(N[C@@H]1CC[C@H]1c1ccc(F)cc1C(F)(F)F)c1cccnc1 (relative stereo) [Example 526]
logP [1]: 2.41^[b]

Cn1cc(C(=O)NC2CCC2c2ccc(Cl)cc2C(F)(F)F)c(C(F)F)n1 (centres unmarked) [Example 719]
logP [4]: 3.17^[b]

COc1nn(C)cc1C(=O)N[C@@H]1CCC[C@@H]1c1ccc(F)c(F)c1 (relative stereo) [Example 76]
logP [4]: 2.64^[b]

O=C(N[C@@H]1C[C@@H]1c1ccc(Cl)cc1Cl)c1cccnc1 (relative stereo) [Example 583]
logP [1]: 2.06^[b]

Cc1nc(C(F)(F)F)c(C(=O)N[C@@H]2CC[C@@H]2c2c(F)cccc2C(F)(F)F)s1 (relative stereo) [Example 573]
logP [1]: 3.47^[b]

Cn1nc(C(F)F)c(C(=S)N(C2CC2)C2CCCCC2(C)c2ccccc2)c1F (centres unmarked) [Example 190]
logP [2]: 5.01^[b]

O=C(N[C@@H]1C[C@H]1c1ccccc1)c1ccccc1I (relative stereo) [Example 44]
logP [4]: 2.93^[b]

Cn1cccc1C(=O)N[C@@H]1CCC[C@H]1c1ccc(F)c(F)c1 (relative stereo) [Example 132]
logP [2]: 3.23^[b]

O=C(NC1CC1c1ccc(Cl)cc1Cl)c1ccccc1C(F)(F)F (centres unmarked) [Example 210]
logP [2]: 3.73^[b]
logP (method [c], HPLC reversed phase, pH 7.8): 3.62^[c];

O=C(NC1CCCC1c1ccccc1Cl)c1cccnc1C(F)(F)F (centres unmarked) [Example 361]
logP [1]: 3.01^[b]

Cc1nc(C(F)(F)F)c(C(=O)N[C@@H]2CCC[C@@H]2c2ccc(F)c(F)c2)s1 (relative stereo) [Example 55]
logP [4]: 3.19^[b]

O=C(N[C@@H]1CC[C@H]1c1ccc(Cl)cc1Cl)c1ccc(Cl)cc1Cl (relative stereo) [Example 265]
logP [1]: 4.48^[b]
